Converted amounts (≈) assume the structure as drawn. “And” between values parts separate entries of the source, which are not always exact repeats. Equal values may be shown once. “Also recorded” adds a separate entry of the source. Read-outs that look alike come from different tables or passages of the source.
Tests used:
[1] = test system: Herpes Simplex Virus Type 1, Strain 377; experiment: Antiviral activity vs. herpes simplex virus type 1 replicating in Vero cells (virus-induced cytopathogenic effects); format: cell-based; details: for antiviral activity vs. HSV-1 (in words): HSV-1, Table 1 summary; for Virus rating (VR): 0.5-0.9 marginal to moderate, >=1 definite antiviral activity; for EC50: Human alphaherpesvirus 1, Vero, read-out: MIC50 (minimum inhibitory concentration, 50%)
Experimental: (§1) The MIC50 (minimum inhibitory concentration, 50%) is the concentration of a test compound required for 50% inhibition of virus-induced cytopathogenic effects.
(§2) ^a Antiviral evaluations were performed with HSV1 or HSV2 replicating

[2] = test system: Herpes Simplex Virus Type 2, Strain MS; experiment: Antiviral activity vs. herpes simplex virus type 2 replicating in Vero cells (virus-induced cytopathogenic effects); format: cell-based; details: for antiviral activity vs. HSV-2 (in words): HSV-2, Table 1 summary; for Virus rating (VR): 0.5-0.9 marginal to moderate, >=1 definite antiviral activity; for EC50: Human alphaherpesvirus 2, Vero, read-out: MIC50 (minimum inhibitory concentration, 50%)
Experimental: as §1, §2

[3] = test system: thymidine phosphorylase; details: isolated from human blood platelets; cited from earlier work
[4] = rats; cited from earlier work
[5] = HSV-1 strain 377, Vero cells, 50% inhibition of virus-induced cytopathogenic effects
[6] = HSV-2 strain MS, Vero cells, 50% inhibition of virus-induced cytopathogenic effects
[7] = listed as carbocyclic analogue of 5-ethynyl-2'-deoxyuridine

## CCc1cn([C@@H]2C[C@H](CO)[C@@H](O)C2)c(=O)[nH]c1=O (relative stereo) [C-EDU, 5-Ethyl-1-[(1α,3β,4α)-3-Hydroxy-4-(hydroxymethyl)cyclopentyl]-2,4(1H,3H)-pyrimidinedione]
[1]
  antiviral activity vs. HSV-1 (in words): comparable to those of 9-β-D-arabinofuranosyladenine (Ara-A); also recorded: as active vs. HSV-1 as is the corresponding true nucleoside, 5-ethyl-2'-deoxyuridine (EDU); also recorded: inhibits the replication
[1]; HSV-1 strain 377, Vero cells
  Virus rating (VR): 2.4 and 2.1
[1]; [5]
  MIC50 (minimum inhibitory concentration, 50%): 69 µg/mL (≈ 271 µM)
  EC50: 45 µg/mL (≈ 177 µM)
[2]
  antiviral activity vs. HSV-2 (in words): comparable to those of 9-β-D-arabinofuranosyladenine (Ara-A); also recorded: definite and significant activity against HSV-2; also recorded: inhibits the replication
[2]; HSV-2 strain MS, Vero cells
  Virus rating (VR): 1.1
[2]; [6]
  MIC50 (minimum inhibitory concentration, 50%): 178 µg/mL (≈ 700 µM)
  EC50: 227 µg/mL (≈ 893 µM)

## CCc1cn([C@H]2C[C@H](O)[C@@H](CO)O2)c(=O)[nH]c1=O [EDU, 5-ethyl-2'-deoxyuridine, reference compound]
[1]; HSV-1 strain 377, Vero cells
  Virus rating (VR): 2.3
[1]
  EC50: 19 µg/mL (≈ 74.1 µM)
[2]; HSV-2 strain MS, Vero cells
  Virus rating (VR): 2.2
[2]
  EC50: 321 µg/mL (≈ 1250 µM)
[3]
  substrate for thymidine phosphorylase: substrates for thymidine phosphorylase
[4]
  cleavage products identified as metabolites: 5-ethyluracil and 5-(2-hydroxyethyl)uracil

## C#Cc1cn([C@@H]2C[C@H](CO)[C@@H](O)C2)c(=O)[nH]c1=O (relative stereo) [Example 4, 1-[(1α,3β,4α)-3-Hydroxy-4-(hydroxymethyl)cyclopentyl]-5-ethynyl-2,4(1H,3H)-pyrimidinedione]
[1]
  antiviral activity vs. HSV-1 (in words): significant antiviral activity
[1]; [7]
  antiviral activity vs. HSV-1 (in words): significant, selective activity
[1]; HSV-1 strain 377, Vero cells
  Virus rating (VR): 0.9
[1]; [5]
  EC50: 253 µg/mL (≈ 1010 µM)
[2]
  antiviral activity vs. HSV-2 (in words): significant antiviral activity
[2]; [7]
  antiviral activity vs. HSV-2 (in words): significant, selective activity
[2]; HSV-2 strain MS, Vero cells
  Virus rating (VR): 1.1
[2]; [6]
  EC50: 207 µg/mL (≈ 827 µM)

## Nc1ncnc2c1ncn2[C@@H]1O[C@H](CO)[C@@H](O)[C@@H]1O [Ara-A, 9-β-D-arabinofuranosyladenine, reference compound]
[1]; HSV-1 strain 377, Vero cells
  Virus rating (VR): 2.0-2.1
[1]
  EC50: 15 to 19 µg/mL (≈ 56.1 to 71.1 µM)
[2]; HSV-2 strain MS, Vero cells
  Virus rating (VR): 1.3-1.7
[2]
  EC50: 22 to 45 µg/mL (≈ 82.3 to 168 µM)

## C[Si](C)(C)CCc1cn([C@@H]2C[C@H](CO)[C@@H](O)C2)c(=O)[nH]c1=O (relative stereo) [Example 7, 1-[(1α,3β,4α)-3-Hydroxy-4-(hydroxymethyl)cyclopentyl]-5-[2-(trimethylsilyl)ethyl]-2,4(1H,3H)-pyrimidinedione]
[1]
  antiviral activity vs. HSV-1 (in words): antiviral activity
  EC50: 320 µg/mL (≈ 980 µM)
[1]; listed as carbocyclic analogue of 5-trimethylsilylethyl-2'-deoxyuridine
  antiviral activity vs. HSV-1 (in words): activity against HSV-1
[1]; HSV-1 strain 377, Vero cells
  Virus rating (VR): 0.5

## O=c1[nH]c(=O)n([C@H]2C[C@H](O)[C@@H](CO)O2)cc1/C=C/Br [BVDU, 5-[(E)-2-(bromovinyl)]-2'-deoxyuridine]
[3]
  substrate for thymidine phosphorylase: substrates for thymidine phosphorylase

Source: US4719214A, “Carbocyclic analogues of thymine nucleosides” (priority 1985, dated 1988)
